This note sets out measurements from US10822312B2, “Substituted quinazoline compounds and methods of use” (ARAXES PHARMA LLC, priority 2016, dated 2020).

As a reminder, the IC50 is the midpoint of a concentration-inhibition curve. Read a high IC50 as a need for much substance.

For assay [1], the target named is T1, KRAS G12D (GDP-loaded, hexahistidine tagged, truncated 1-169) (Homo sapiens, UniProt P01116, G12D).
T1 construct: truncated (1-169) KRAS proteins; hexahistidine
As to the kind of experiment: SOS-mediated nucleotide exchange assay, KRAS G12D. Type of assay: biochemical. As to conditions: SOS(cat)-mediated Bodipy-GDP exchange. As to the method: (§1) GDP-loaded, hexahistidine tagged, truncated (1-169) KRAS proteins (WT or G12D) were used (stored in protein dilution buffer [20 mM HEPES pH=7.5, 150 NaCl, 1 mM MgCl2]). 1 μL of the respective KRAS protein (1.88 μM stock, 0.125 μM final) was mixed with 10 μL of assay buffer (30 mM TRIS pH=7.5, 1.5 mM MgCl2, 0.135 μM Bodipy-GDP [20 mM TRIS pH=7.5, 1.0 mM MgCl2, 0.09 μM final]) and 1 μL of 15× compound stock in 30% DMSO (final DMSO conc. 2%). After 30 min incubation at room temperature, the exchange reaction was initiated by addition of 3 μL SOS(cat) (catalytic domain, 2.5 μM stock in protein dilution buffer, 0.5 μM final). The assay was carried out in black low-volume plates (Corning #4514) and fluorescence was monitored (485 nm excitation and 510 nm emission) for 45 minutes after initiation at 60-s intervals.
(§2) For data analysis, relative fluorescence values for each sample after subtracting the background values (before SOS addition) were plotted in graph pad. Rates were then calculated by fitting the data by non-linear regression (one phase association curve). Typically, 6 dilutions per compound (3-fold series, starting at 60 μM final) were measured. Calculated rates vs compound concentrations were fitted by non-linear regression (log(inhibitor) vs response-Variable slope (four parameters) fit) to determine IC50 values.
(§3) Compound numbers correspond to the numbers and structures provided in Tables 1, 2 and 3 and Examples 1-4.

Assay [2] deals with T2, KRAS WT (GDP-loaded, hexahistidine tagged, truncated 1-169) (Homo sapiens, UniProt P01116).
T2 construct: truncated (1-169) KRAS proteins; hexahistidine
T2 sequence (P01116 1-169 isoform P01116-2): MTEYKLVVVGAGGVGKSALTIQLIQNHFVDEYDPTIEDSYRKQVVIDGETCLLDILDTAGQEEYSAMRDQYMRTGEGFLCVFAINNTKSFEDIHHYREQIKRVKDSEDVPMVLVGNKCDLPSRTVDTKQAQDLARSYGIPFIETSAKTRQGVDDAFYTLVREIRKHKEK
The experiment in a line: SOS-mediated nucleotide exchange assay, KRAS WT. Format: biochemical. Conditions: SOS(cat)-mediated Bodipy-GDP exchange. As to the method:
as §1, §2, §3

T1 sequence (P01116 1-169 isoform P01116-2 G12D): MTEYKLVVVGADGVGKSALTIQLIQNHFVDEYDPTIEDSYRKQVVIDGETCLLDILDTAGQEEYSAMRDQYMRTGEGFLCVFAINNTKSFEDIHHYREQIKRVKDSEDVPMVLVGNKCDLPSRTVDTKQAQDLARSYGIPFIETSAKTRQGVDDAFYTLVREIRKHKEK

`CN(C)CCCOc1nc(N2CCNC(CC(N)=O)C2)c2cc(Cl)c(-c3cc(O)cc4ccccc34)c(F)c2n1` (centres unmarked) [Compound 169]: the IC50 in assay [1] is < 15 µM.
As to `CN(C(=O)CO)C1CN(c2nc(N3CCNCC3)c3cc(Cl)c(-c4cc(O)cc5ccccc45)c(F)c3n2)C1` [Compound 346], the IC50 in assay [2] and in assay [1] was > 15 µM throughout.
Consider `CN(C(=O)CN)C1CN(c2nc(N3CCNCC3)c3cc(Cl)c(-c4cc(O)cc5ccccc45)c(F)c3n2)C1` [Compound 344], for which the IC50 in assay [2] is > 15 µM; in assay [1], < 15 µM.
`CN(CCCCCN=[N+]=[N-])CCCOc1nc(N2CCOCC2)c2cc(Cl)c(-c3cc(O)cc4ccccc34)c(F)c2n1` [Compound 167]: the IC50 in assay [1] is > 15 µM.
On to `CN(C)CCCOc1nc(N2CCNC(CC#N)C2)c2cc(Cl)c(-c3cc(O)cc4ccccc34)c(F)c2n1` (centres unmarked) [Compound 170], for which the IC50 is < 15 µM in assay [2] and > 15 µM in assay [1].
With `CC(=O)NCCCCCN(C)CCCOc1nc(N2CCOCC2)c2cc(Cl)c(-c3cc(O)cc4ccccc34)c(F)c2n1` [Compound 171], the IC50 in assay [2] and in assay [1] was > 15 µM in each case.
In the case of `CN(C)CCCOc1nc(N2CCNCC2)c2cc(C(F)(F)F)c(-c3cc(O)cc4ccccc34)c(F)c2n1` (atropisomer, axis not shown) [Compound 156], the IC50 in assay [1] was < 15 µM.
Turning to `CN(C)CCCOc1nc(N2CCOCC2)c2cc(Cl)c(-c3cc(O)cc4ccccc34)c(F)c2n1` (atropisomer, axis not shown) [Compound 151], the IC50 in assay [2] was < 15 µM; in assay [1] it was > 15 µM.
In the same order, the values of `CN(C)CCCOc1nc(N2CCNCC2)c2cc(Cl)c(-c3c(O)cccc3F)c(F)c2n1` [Compound 112] are > 15 µM and > 15 µM.
In the same order, the values of `CN(C)CCCOc1nc(N2CCNCC2)c2cc(Cl)c(-c3cc(O)cc4ccccc34)c(F)c2n1` (single isomer, unassigned) [Compound 22, 4-(6-chloro-2-(3-(dimethylamino)propoxy)-8-fluoro-4-(piperazin-1-yl)quinazolin-7-yl)naphthalen-2-ol] are > 15 µM and < 15 µM.
Regarding `CC(=O)N1CCN(c2nc(OCCCN(C)C)nc3c(F)c(-c4cc(O)cc5ccccc45)c(C(F)(F)F)cc23)CC1` (atropisomer, axis not shown) [Compound 158], the IC50 in assay [2] was < 15 µM; in assay [1], > 15 µM.
`CN(CCCCCN=[N+]=[N-])CCCOc1nc(N2CCNCC2)c2cc(Cl)c(-c3cc(O)cc4ccccc34)c(F)c2n1` [Compound 168]: the IC50 in assay [1] is > 15 µM.
In the case of `CN(C)CCCOc1nc(N2CCN[C@@H](C(N)=O)C2)c2cc(Cl)c(-c3cc(O)cc4ccccc34)c(F)c2n1` [Compound 164], the IC50 in assay [2] and in assay [1] was > 15 µM throughout.
`Cc1cc(N)c2[nH]ncc2c1-c1c(Cl)cc2c(N3CCNCC3)nc(OCCCN(C)C)nc2c1F` [Compound 173]: the IC50 in assay [2] and in assay [1] was > 15 µM in each case.
Take `CN(CCOc1nc(N2CCOCC2)c2cc(Cl)c(-c3cc(O)cc4ccccc34)c(F)c2n1)C(=O)CCl` [Compound 175]: the IC50 in assay [2] and in assay [1] was > 15 µM throughout.
For the compound `C[C@@H]1CN(c2nc(N3CC(N(C)C)C3)nc3c(F)c(-c4cc(O)cc5ccccc45)c(Cl)cc23)[C@@H](C)CN1` (atropisomer, axis not shown) [Compound 330], the IC50 in assay [2] and in assay [1] was > 15 µM in each case.
In the case of `CN(C)CCCOc1nc(N2CCOCC2)c2cc(C(F)(F)F)c(-c3cc(O)cc4ccccc34)c(F)c2n1` (atropisomer, axis not shown) [Compound 162], the IC50 in assay [2] is < 15 µM; in assay [1], > 15 µM.
Take `CN(C)CCCOc1nc(N2CCNCC2)c2cc(C(F)(F)F)c(-c3cc(O)cc4ccccc34)c(F)c2n1` [Compound 147]: the IC50 in assay [2] is > 15 µM.
Take `O=S(=O)(F)CCOc1nc(N2CCOCC2)c2cc(Cl)c(-c3cc(O)cc4ccccc34)c(F)c2n1` [Compound 176]: the IC50 in assay [2] and in assay [1] was > 15 µM each time.
Regarding `CN(C(=O)CCl)C1CN(c2nc(N3CCNCC3)c3cc(Cl)c(-c4cc(O)cc5ccccc45)c(F)c3n2)C1` [Compound 351], the IC50 in assay [2] and in assay [1] was > 15 µM each time.
On to `CN(C(=O)CCl)C1CN(c2nc(N3CCOCC3)c3cc(Cl)c(-c4cc(O)cc5ccccc45)c(F)c3n2)C1` [Compound 350], for which the half-inhibitory concentration (IC50) in assay [2] and in assay [1] was > 15 µM throughout.
Turning to `CN(C)CCCOc1nc(N2CCN[C@@H](C#N)C2)c2cc(Cl)c(-c3cc(O)cc4ccccc34)c(F)c2n1` [Compound 166], the IC50 in assay [2] and in assay [1] was > 15 µM throughout.
`Cc1cc(N)c2[nH]ncc2c1-c1c(Cl)cc2c(N3CCOCC3)nc(OCCCN(C)C)nc2c1F` [Compound 174]: in assay [1], the IC50 is > 15 µM.
On to `CN(C)C1CN(c2nc(N3CCNCC3)c3cc(Cl)c(-c4cc(O)cc5ccccc45)c(F)c3n2)C1` [Compound 334, 4-(6-Chloro-2-(3-(dimethylamino)azetidin-1-yl)-8-fluoro-4-(piperazin-1-yl)quinazolin-7-yl)naphthalen-2-ol], for which the IC50 in assay [1] was < 15 µM.
As for `CN(C)CC(O)COc1nc(N2CCNCC2)c2cc(Cl)c(-c3cc(O)cc4ccccc34)c(F)c2n1` (centres unmarked) [Compound 120], the IC50 in assay [2] and in assay [1] was > 15 µM in each case.
Turning to `CC(=O)NCCCCCN(C)CCCOc1nc(N2CCNCC2)c2cc(Cl)c(-c3cc(O)cc4ccccc34)c(F)c2n1` [Compound 172], the IC50 was > 15 µM in assay [2] and < 15 µM in assay [1].
In the case of `C[C@@H]1CN(c2nc(OCCCN(C)C)nc3c(F)c(-c4cc(O)cc5ccccc45)c(Cl)cc23)[C@@H](C)CN1` (atropisomer, axis not shown) [Compound 97], the IC50 in assay [2] and in assay [1] was > 15 µM each time.
With `CN(C)CCCOc1nc(N2CCC(C#N)CC2)c2cc(Cl)c(-c3cc(O)cc4ccccc34)c(F)c2n1` [Compound 165], the IC50 in assay [2] and in assay [1] was > 15 µM each time.
For `CN(C)C1CN(c2nc(N3CCNCC3)c3cc(Cl)c(-c4cc(O)cc5ccccc45)c(F)c3n2)C1` (atropisomer, axis not shown) [Compound 339], in assay [2], the IC50 was > 15 µM.
`CN(C)CCCOc1nc(N2CCN[C@@H](CO)C2)c2cc(Cl)c(-c3cc(O)cc4ccccc34)c(F)c2n1` [Compound 155]: the figures for the IC50 in assay [2] and in assay [1] were > 15 µM and < 15 µM, respectively.
As to `Cc1ccc2[nH]ncc2c1-c1c(Cl)cc2c(N3CCNCC3)nc(OCCCN(C)C)nc2c1F` [Compound 108], the IC50 in assay [2] and in assay [1] was > 15 µM in each case.
With `CC(=O)N1CCN(c2nc(OCCCN(C)C)nc3c(F)c(-c4cc(O)cc5ccccc45)c(Cl)cc23)CC1` (single isomer, unassigned) [Compound 18, 1-(4-(6-chloro-2-(3-(dimethylamino)propoxy)-8-fluoro-7-(3-hydroxynaphthalen-1-yl)quinazolin-4-yl)piperazin-1-yl)ethanone], the IC50 in assay [2] was < 15 µM; in assay [1] it was > 15 µM.
